Data as given in patent publication US20230130766A1 (SALK INSTITUTE FOR BIOLOGICAL STUDIES, priority 2020, published 2023).

biological target: T1, ULK1 (Homo sapiens, UniProt O75385); test: ULK1 inhibition assay; format: biochemical; conditions: * = tested as a mixture of regioisomers
T1 sequence (O75385 1-1050): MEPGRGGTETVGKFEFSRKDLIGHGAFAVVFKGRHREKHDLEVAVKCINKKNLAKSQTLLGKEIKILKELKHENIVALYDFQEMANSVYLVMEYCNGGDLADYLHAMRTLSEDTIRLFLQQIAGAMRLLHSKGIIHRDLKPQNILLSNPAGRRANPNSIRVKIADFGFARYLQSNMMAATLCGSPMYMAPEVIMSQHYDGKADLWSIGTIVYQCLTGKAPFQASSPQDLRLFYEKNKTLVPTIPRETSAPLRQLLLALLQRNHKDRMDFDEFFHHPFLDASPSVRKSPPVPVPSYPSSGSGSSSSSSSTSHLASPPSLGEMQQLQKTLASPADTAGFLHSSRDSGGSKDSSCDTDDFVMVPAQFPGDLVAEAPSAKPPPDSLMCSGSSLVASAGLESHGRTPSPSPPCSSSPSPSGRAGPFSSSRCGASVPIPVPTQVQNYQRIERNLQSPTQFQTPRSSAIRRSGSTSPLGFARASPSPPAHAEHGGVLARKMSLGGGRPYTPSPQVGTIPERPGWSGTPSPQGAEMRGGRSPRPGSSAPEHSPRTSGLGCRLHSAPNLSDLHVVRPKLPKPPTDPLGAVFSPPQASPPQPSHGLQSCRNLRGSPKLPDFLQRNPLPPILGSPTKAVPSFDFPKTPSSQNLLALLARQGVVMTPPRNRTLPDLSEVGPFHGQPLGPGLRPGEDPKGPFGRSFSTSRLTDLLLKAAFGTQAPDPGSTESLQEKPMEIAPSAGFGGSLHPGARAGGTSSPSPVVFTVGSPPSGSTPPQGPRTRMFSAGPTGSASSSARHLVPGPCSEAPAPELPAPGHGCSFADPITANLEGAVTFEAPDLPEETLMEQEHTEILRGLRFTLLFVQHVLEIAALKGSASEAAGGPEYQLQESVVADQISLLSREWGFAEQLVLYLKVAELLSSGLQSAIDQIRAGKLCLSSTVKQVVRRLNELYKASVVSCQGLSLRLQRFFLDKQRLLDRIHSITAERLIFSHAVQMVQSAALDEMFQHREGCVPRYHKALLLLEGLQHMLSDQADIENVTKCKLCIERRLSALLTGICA

SMILES | IC50
CC(Cl)CNc1nc(Nc2ccc3c(c2)CCC(=O)N3)ncc1C(F)(F)F (stereo not shown) [Compound 183b] | < 0.2 µM
CC(CCl)Nc1nc(Nc2ccc3c(c2)CCC(=O)N3)ncc1C(F)(F)F (stereo not shown) [Compound 183c] | > 2 µM
CN(c1ccccc1)c1nc(Nc2ccc3c(c2)CCC(=O)N3)ncc1C(F)(F)F [Compound 184a] | 0.2 to 2 µM
CN(c1ccccc1)c1ncc(C(F)(F)F)c(Nc2ccc3c(c2)CCC(=O)N3)n1 [Compound 184b] | < 0.2 µM
COc1cc(Nc2ncc(C(F)(F)F)c(NC3CC3)n2)cc(OC)c1OC [Compound 187] | < 0.2 µM
Oc1ncc(C(F)(F)F)c(NC2CC2)n1 [Compound 189] | > 2 µM
O=c1[nH]c2ncc(Nc3nc(Nc4ccc5c(c4)OCCO5)ncc3Br)cc2o1 [Compound 192] | < 0.2 µM
FC(F)(F)c1cnc(Nc2cnc3[nH]ccc3c2)nc1NC1COC1 [Compound 194] | < 0.2 µM
O=C1CCc2cc(Nc3ncc(C(F)(F)F)c(NCCO)n3)ccc2N1 [Compound 197] | < 0.2 µM
O=C1CCc2cc(Nc3ncc(C(F)(F)F)c(NC4CN(c5nc(Nc6ccc7c(c6)CCC(=O)N7)ncc5C(F)(F)F)C4)n3)ccc2N1 [Compound 198b] | > 2 µM
CNC(=O)c1ccccc1Nc1nc(Nc2cnc3[nH]ccc3c2)ncc1C(F)(F)F [Compound 201] | < 0.2 µM
FC(F)(F)c1cnc(Nc2cncnc2)nc1NC1CC1 [Compound 203] | < 0.2 µM
O=C1CCc2cc(Nc3ncc(C(F)(F)F)c(N(CCO)CCO)n3)ccc2N1 [Compound 212a] | > 2 µM
O=C1CCc2cc(Nc3ncc(C(F)(F)F)c(OCCNCCO)n3)ccc2N1 [Compound 212b] | 0.2 to 2 µM
FC(F)(F)c1cnc(Nc2ccon2)nc1NC1CC1 [Compound 214a] | 0.2 to 2 µM
N=c1ccon1-c1ncc(C(F)(F)F)c(NC2CC2)n1 [Compound 214b] | > 2 µM
O=C1CCc2cc(Nc3ncc(C(F)(F)F)c(N4CC(F)(F)C4)n3)ccc2N1 [Compound 215] | < 0.2 µM
Nc1nc(Nc2cnc3[nH]ccc3c2)ncc1C(F)(F)F [Compound 217] | > 2 µM
COC(=O)CNc1nc(Nc2ccc3c(c2)CCC(=O)N3)ncc1C(F)(F)F [Compound 218] | > 2 µM
CCONc1nc(Nc2ccc3c(c2)CCC(=O)N3)ncc1C(F)(F)F [Compound 219] | > 2 µM

SMILES | IC50
CC1(Nc2nc(Nc3ccc4c(c3)CCC(=O)N4)ncc2C(F)(F)F)COC1 [Compound 220a] | > 2 µM
CN(C)c1nc(Nc2ccc3c(c2)CCC(=O)N3)ncc1C(F)(F)F [Compound 220b] | < 0.2 µM
COCC(C)(CN(C)C)Nc1nc(Nc2ccc3c(c2)CCC(=O)N3)ncc1C(F)(F)F (stereo not shown) [Compound 220c] | > 2 µM
COC(=O)[C@@H]1CCCN1c1nc(Nc2ccc3c(c2)CCC(=O)N3)ncc1C(F)(F)F [Compound 227] | 0.2 to 2 µM
FC(F)(F)c1cnc(N2CCCC2c2cccnc2)nc1NC1CC1 (stereo not shown) [Compound 228] | > 2 µM
O=C1CCc2cc(Nc3ncc(C(F)(F)F)c(OC4COC4)n3)ccc2N1 [Compound 231a] | < 0.2 µM
CNC(=O)c1ccccc1Oc1nc(Nc2cc(OC)c(OC)c(OC)c2)ncc1Cl [Compound 234a] | > 2 µM
COc1cc(Nc2ncc(Cl)c(N(C)C(=O)c3ccccc3O)n2)cc(OC)c1OC [Compound 234b] | 0.2 to 2 µM
CNS(=O)(=O)c1ccccc1Nc1nc(Nc2cc(OC)c(OC)c(OC)c2)ncc1Br [Compound 237] | 0.2 to 2 µM
CNC(=O)c1ccccc1Oc1ccnc(Nc2cc(OC)c(OC)c(OC)c2)n1 [Compound 239] | > 2 µM
CNC(=O)c1cccc(Oc2nc(Nc3cc(OC)c(OC)c(OC)c3)ncc2Br)c1 [Compound 242] | 0.2 to 2 µM
COc1cc(Nc2ncc(Br)c(Oc3ccccc3C(=O)N(C)C)n2)cc(OC)c1OC [Compound 245] | < 0.2 µM
Oc1ccc(CCNc2ncc(C(F)(F)F)c(NC3CC3)n2)cc1 [Compound 246] | 0.2 to 2 µM
C[C@@H]1COCCN1c1nc(Nc2ccc3c(c2)CCC(=O)N3)ncc1C(F)(F)F [Compound 247] | < 0.2 µM
COc1cc(Nc2ncc(Br)c(Oc3ccccc3C(N)=O)n2)cc(OC)c1OC [Compound 249] | < 0.2 µM
CNC(=O)c1cccc(OC)c1Oc1nc(Nc2cc(OC)c(OC)c(OC)c2)ncc1Br [Compound 252] | < 0.2 µM
COc1cc(Nc2ncc(Br)c(Oc3ccccc3NC(C)=O)n2)cc(OC)c1OC [Compound 254a] | < 0.2 µM
COc1cc(Nc2ncc(Br)c(Oc3ccccc3N)n2)cc(OC)c1OC [Compound 254b] | < 0.2 µM
CNC(=O)c1c(O)cccc1Oc1nc(Nc2cc(OC)c(OC)c(OC)c2)ncc1Br [Compound 257] | < 0.2 µM

The next lines start with the values.

IC50 | SMILES
< 0.2 µM | O=C1CCc2cc(Nc3ncc(C(F)(F)F)c(Nc4ccc5[nH]ncc5c4)n3)ccc2N1 [Compound 185]
< 0.2 µM | COc1cc(Nc2ncc(Br)c(NC3CC3)n2)cc(OC)c1OC [Compound 186]
< 0.2 µM | FC(F)(F)c1cnc(Nc2ccc3nn[nH]c3c2)nc1NC1CC1 [Compound 188]
< 0.2 µM | FC(F)(F)c1cnc(Nc2ccc3c(c2)OCCCO3)nc1NC1CC1 [Compound 190]
> 2 µM | O=C1CCc2cc(Nc3ncc(C(F)(F)F)c(NC4COC4)n3)ccc2N1 [Compound 193]
> 2 µM | FC(F)(F)c1cnc(Nc2cccnc2)nc1NC1CC1 [Compound 196]
0.2 to 2 µM | O=C1CCc2cc(Nc3ncc(C(F)(F)F)c(NC4CNC4)n3)ccc2N1 [Compound 198a]
> 2 µM | O=C1CCc2cc(Nc3nccc(NC4CC4)n3)ccc2N1 [Compound 200]
< 0.2 µM | CN(c1nc(Nc2ccc3c(c2)CCC(=O)N3)ncc1C(F)(F)F)C1CC1 [Compound 202]
> 2 µM | c1cc(NC2CC2)nc(Nc2cnc3[nH]ccc3c2)n1 [Compound 204]
< 0.2 µM | FC(F)(F)c1cnc(Nc2ccc3[nH]ccc3c2)nc1NC1CC1 [Compound 206]
< 0.2 µM | FC(F)(F)c1cnc(Nc2ccc3ncoc3c2)nc1NC1CC1 [Compound 208a]
< 0.2 µM | OC1Nc2ccc(Nc3ncc(C(F)(F)F)c(NC4CC4)n3)cc2O1 (stereo not shown) [Compound 208b]
0.2 to 2 µM | Nc1nc(Nc2ccc3c(c2)CCC(=O)N3)ncc1C(F)(F)F [Compound 209]
< 0.2 µM | FC(F)(F)c1cnc(Nc2ccc3c(c2)OCO3)nc1NC1CC1 [Compound 213]
< 0.2 µM | O=C1CCc2cc(Nc3ncc(C(F)(F)F)c(NCC4CC4)n3)ccc2N1 [Compound 216]
< 0.2 µM | FC(F)(F)c1cnc(Nc2ccnnc2)nc1NC1CC1 [Compound 221a]
> 2 µM | c1cc(NC2CC2)nc(Nc2ccc3c(c2)OCCO3)n1 [Compound 224]
> 2 µM | O=C1CCc2cc(Nc3ncnc(NC4CC4)n3)ccc2N1 [Compound 225]
> 2 µM | O=C1CCc2cc(Nc3ncc(C(F)(F)F)c(O)n3)ccc2N1 [Compound 231b]
> 2 µM | O=c1[nH]c2ccc(Nc3nccc(NC4CC4)n3)cc2[nH]1 [Compound 232]
< 0.2 µM | O=c1[nH]c2ccc(Nc3ncc(Br)c(Nc4ccc5[nH]c(=O)[nH]c5c4)n3)cc2[nH]1 [Compound 233]
< 0.2 µM | O=c1[nH]c2ccc(Nc3ncc(Br)c(NC4CC4)n3)cc2[nH]1 [Compound 236]
< 0.2 µM | O=C1Cc2cc(Nc3ncc(C(F)(F)F)c(NC4CC4)n3)ccc2N1 [Compound 240]
> 2 µM | FC1(F)Oc2ccc(Nc3ncc(C(F)(F)F)c(NC4CC4)n3)cc2O1 [Compound 258]
